Measured values from patent US12291529B2, “Heterocyclic GLP-1 agonists” (Gasherbrum Bio, Inc., priority 2023, dated 2025).

What was measured:
[1] = molecular target: GLP-1 Receptor (Homo sapiens, UniProt P43220); assay: GLP-1R agonist cAMP stimulation assay (HEK293/GLP1R/CRE-LUC cells, Cisbio cAMP dynamic 2 kit); type: cell-based
Outline: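 cAMP was measured by HTRF (d2/cryptate, 1 h RT, 665 and 615 nm). Beforehand, compounds in half-log series were incubated 30 min at 37 °C with GLP-1R/CRE-Luc HEK293 cells (1000 per well) in IBMX (0.5 mM)-containing DPBS/BSA. Activity scaled between vehicle and maximal control.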

[2] = Caco-2 permeability / efflux study; type: in vitro ADME; conditions: human; for Papp at 2 h, 10 μM: Caco-2, pH 7.4, 10 μM, 37° C., pH 7.4, 0.5% BSA, read-out: Caco-2 Perm; for efflux ratio at 2 h, 10 μM: Caco-2, pH 7.4, Caco-2 efflux ratio
Procedure: Incubations with Caco-2 cell monolayers were performed in duplicate in a 96-well Transwell plate. Transport buffer solution (HBSS, 10 mM HEPES, pH 7.4, with 0.5% BSA) containing test article (10 μM), and either the control compounds metoprolol (10 μM), cimetidine (10 μM) and erythromycin (10 μM), was added to appropriate donor wells of the apical or basolateral plate. The transport buffer with DMSO was added to appropriate wells of receiver wells. Following incubation at 37° C. for 2 hours, the cell plates were removed and 50 μL samples from both apical and basolateral sides were transferred into new 96-well plates. Subsequently, 200 μL of acetonitrile containing internal standard was added to all samples to precipitate protein prior to analysis by UPLC-MS/MS. Lucifer yellow was used as a marker to confirm the integrity of the cell monolayers after 2 hours incubation.

[3] = Table 3, HEK293/GLP1R/CRE-LUC cells, 30 min

Chain of GLP-1 Receptor (P43220 24-463, species assumed): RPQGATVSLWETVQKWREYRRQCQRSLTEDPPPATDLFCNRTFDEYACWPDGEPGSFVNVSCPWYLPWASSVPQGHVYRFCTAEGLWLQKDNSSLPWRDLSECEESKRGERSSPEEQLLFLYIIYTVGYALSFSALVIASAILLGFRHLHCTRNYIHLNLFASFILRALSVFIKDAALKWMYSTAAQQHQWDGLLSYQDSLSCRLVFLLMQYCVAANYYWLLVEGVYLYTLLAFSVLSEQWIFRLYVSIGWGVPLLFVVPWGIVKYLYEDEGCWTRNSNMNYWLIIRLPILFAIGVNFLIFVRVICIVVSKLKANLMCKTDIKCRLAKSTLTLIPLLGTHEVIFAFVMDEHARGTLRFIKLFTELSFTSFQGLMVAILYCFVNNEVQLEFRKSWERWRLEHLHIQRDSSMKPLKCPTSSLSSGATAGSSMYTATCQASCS

EC50 [1, 3]	EC50 ([1]; Table 4)	Papp at 2 h, 10 μM [2]	efflux ratio at 2 h, 10 μM [2]	SMILES
0.083 nM	0.059 nM	0.09 ×10⁻⁶ cm/s	20.7	CN=S(=O)(c1ccc(-n2ccn(-c3c4c(nn3-c3cc(C)c(F)c(C)c3)CCN(C(=O)c3cc5cc([C@H]6CCOC(C)(C)C6)ccc5n3[C@@]3(c5noc(=O)[nH]5)C[C@@H]3C)[C@H]4C)c2=O)cc1NC)C1CC1 (single isomer, unassigned) [Compound 218]
0.001 nM	0.011 nM	0.19 ×10⁻⁶ cm/s	45	Cc1cc(-n2nc3c(c2-n2ccn(-c4ccc(S(=N)(=O)C5CCC5)cc4F)c2=O)[C@H](C)N(C(=O)c2cc4cc([C@H]5CCOC(C)(C)C5)ccc4n2[C@@]2(c4noc(=O)[nH]4)C[C@@H]2C)CC3)cc(C)c1F (single isomer, unassigned) [Compound 183]
0.011 nM	0.011 nM	0.21 ×10⁻⁶ cm/s	50	Cc1cc(-n2nc3c(c2-n2ccn(-c4ccc(S(=N)(=O)C5CCC5)cc4F)c2=O)[C@H](C)N(C(=O)c2cc4cc(C5CCOCC5)ccc4n2[C@@]2(c4noc(=O)[nH]4)C[C@@H]2C)CC3)cc(C)c1F (single isomer, unassigned) [Compound 168]
0.072 nM	0.072 nM	0.3 ×10⁻⁶ cm/s	36.8	CCS(=O)(=NC)c1ccc(-n2ccn(-c3c4c(nn3-c3cc(C)c(F)c(C)c3)CCN(C(=O)c3cc5cc(C6CCOCC6)ccc5n3[C@@]3(c5noc(=O)[nH]5)C[C@@H]3C)[C@H]4C)c2=O)c(Cl)c1 (single isomer, unassigned) [Compound 151]
0.67 nM				Cc1cc(-n2nc3c(c2-n2ccn(-c4ccc(S(C)(=N)=O)cc4)c2=O)[C@H](C)N(C(=O)c2cc4cc(N5CCOCC5)ccc4n2C2(c4noc(=O)[nH]4)CC2)CC3)cc(C)c1F (some centres unmarked) [Compound 106]
0.047 nM				CCS(=N)(=O)c1ccc(-n2ccn(-c3c4c(nn3-c3cc(C)c(F)c(C)c3)CCN(C(=O)c3cc5cc(C6CCOCC6)ccc5n3[C@@]3(c5noc(=O)[nH]5)C[C@@H]3C)[C@H]4C)c2=O)c(Cl)c1 (single isomer, unassigned) [Compound 136]
0.12 nM				CCS(=N)(=O)c1ccc(-n2ccn(-c3c4c(nn3-c3ccc(F)c(C5CC5)c3)CCN(C(=O)c3cc5cc(C6CCOCC6)ccc5n3[C@@]3(c5noc(=O)[nH]5)C[C@@H]3C)[C@H]4C)c2=O)c(F)c1 (single isomer, unassigned) [Compound 167]
0.011 nM				CCS(=N)(=O)c1ccc(-n2ccn(-c3c4c(nn3-c3cc(C)c(F)c(C)c3)CCN(C(=O)c3cc5cc(C6CCOCC6)ccc5n3[C@@]3(c5noc(=O)[nH]5)C[C@@H]3C)[C@H]4C)c2=O)cc1 (single isomer, unassigned) [Compound 117]
0.193 nM				CN=S(=O)(c1ccc(-n2ccn(-c3c4c(nn3-c3cc(C)c(F)c(C)c3)CCN(C(=O)c3cc5cc([C@H]6CCOC(C)(C)C6)ccc5n3[C@@]3(c5noc(=O)[nH]5)C[C@@H]3C)[C@H]4C)c2=O)c(F)c1C(C)C)C1CC1 (single isomer, unassigned) [Compound 219]
0.025 nM				Cc1cc(-n2nc3c(c2-n2ccn(-c4ccc(OC5CCS(=N)(=O)CC5)cc4)c2=O)[C@H](C)N(C(=O)c2cc4cc(C5CCOCC5)ccc4n2[C@@]2(c4noc(=O)[nH]4)C[C@@H]2C)CC3)cc(C)c1F (stereo partly drawn) [Compound 226, 3-((1S,2S)-1-(2-((S)-2-(4-fluoro-3,5-dimethylphenyl)-3-(3-(4-((1-imino-1-oxidohexahydro-1λ^6-thiopyran-4-yl)oxy)phenyl)-2-oxo-2,3-dihydro-1H-imidazol-1-yl)-4-methyl-4,5,6,7-tetrahydro-2H-pyrazolo[4,3-c]pyridine-5-carbonyl)-5-(tetrahydro-2H-pyran-4-yl)-1H-indol-1-yl)-2-methylcyclopropyl)-1,2,4-oxadiazol-5(4H)-one]
0.058 nM				CN=S1(=O)CCC(Oc2ccc(-n3ccn(-c4c5c(nn4-c4cc(C)c(F)c(C)c4)CCN(C(=O)c4cc6cc(C7CCOCC7)ccc6n4[C@@]4(c6noc(=O)[nH]6)C[C@@H]4C)[C@H]5C)c3=O)cc2C(F)F)CC1 (single isomer, unassigned) [Compound 234]
1.8 nM				CCS(=O)(=NC)c1ccc(-n2ccn(-c3c4c(nn3-c3cc(C)c(F)c(C)c3)CCN(C(=O)c3cc5cc(C6CCOCC6)ccc5n3Cc3cnc(C)cn3)[C@H]4C)c2=O)c(F)c1 (single isomer, unassigned) [Compound 170]
0.016 nM				Cc1cc(-n2nc3c(c2-n2ccn(-c4ccc5c(c4F)CCN=S5(C)=O)c2=O)[C@H](C)N(C(=O)c2cc4cc([C@H]5CCOC(C)(C)C5)ccc4n2[C@@]2(c4noc(=O)[nH]4)C[C@@H]2C)CC3)cc(C)c1F (single isomer, unassigned) [Compound 185]
0.077 nM				Cc1cc(-n2nc3c(c2-n2ccn(-c4ccc(C5CCS(=N)(=O)CC5)cc4)c2=O)[C@H](C)N(C(=O)c2cc4cc(C5CCOCC5)ccc4n2[C@@]2(c4noc(=O)[nH]4)C[C@@H]2C)CC3)cc(C)c1F (single isomer, unassigned) [Compound 182]
0.34 nM				Cc1cc(-n2nc3c(c2-n2ccn(-c4ccc5c(c4)CCS(C)(=O)=N5)c2=O)[C@H](C)N(C(=O)c2cc4cc([C@H]5CCOC(C)(C)C5)ccc4n2[C@@]2(c4noc(=O)[nH]4)C[C@@H]2C)CC3)cc(C)c1F (single isomer, unassigned) [Compound 228]
0.026 nM				Cc1cc(-n2ccn(-c3c4c(nn3-c3cc(C)c(F)c(C)c3)CCN(C(=O)c3cc5cc([C@H]6CCOC(C)(C)C6)ccc5n3[C@@]3(c5noc(=O)[nH]5)C[C@@H]3C)[C@H]4C)c2=O)c(F)cc1S(=N)(=O)C1CC1 (single isomer, unassigned) [Compound 190]
0.047 nM				Cc1cc(-n2ccn(-c3c4c(nn3-c3cc(C)c(F)c(C)c3)CCN(C(=O)c3cc5cc([C@H]6CCOC(C)(C)C6)ccc5n3[C@@]3(c5noc(=O)[nH]5)C[C@@H]3C)[C@H]4C)c2=O)c(F)cc1S(=N)(=O)C1CC1 (single isomer, unassigned) [Compound 189]
0.17 nM				Cc1cc(-n2nc3c(c2-n2ccn(-c4ccc(S(C)(=N)=O)nc4)c2=O)[C@H](C)N(C(=O)c2cc4cc(C5CCOCC5)ccc4n2[C@@]2(c4noc(=O)[nH]4)C[C@@H]2C)CC3)cc(C)c1F (stereo partly drawn) [Compound 102, 3-[(1S,2S)-1-(2-{[(4S)-3-(3-{6-[azanylidene(methyl)(oxo)-λ^6-sulfanyl]pyridin-3-yl}-2-oxoimidazol-1-yl)-2-(4-fluoro-3,5-dimethylphenyl)-4-methyl-4,5,6,7-tetrahydropyrazolo[4,3-c]pyridin-5-yl]carbonyl}-5-(3,4,5,6-tetrahydro-2H-pyran-4-yl)indol-1-yl)-2-methylcyclopropyl]-4H,5H-1,2,4-oxadiazol-5-one]
0.046 nM				Cc1cc(-n2nc3c(c2-n2ccn(-c4ccc(S(C)(=O)=NC#N)cc4)c2=O)[C@H](C)N(C(=O)c2cc4cc(C5CCOCC5)ccc4n2[C@@]2(c4noc(=O)[nH]4)C[C@@H]2C)CC3)cc(C)c1F (single isomer, unassigned) [Compound 122]
0.017 nM				Cc1cc(-n2nc3c(c2-n2ccn(-c4ccc(S(C)(=N)=O)cc4)c2=O)[C@H](C)N(C(=O)c2cc4cc(C5CCOCC5)ccc4n2[C@@]2(c4noc(=O)[nH]4)C[C@@H]2C)CC3)cc(C)c1F (single isomer, unassigned) [Compound 114]
0.2 nM				CN=S(=O)(c1ccc(-n2ccn(-c3c4c(nn3-c3ccc(F)c(C5CC5)c3)CCN(C(=O)c3cc5cc([C@H]6CCOC(C)(C)C6)ccc5n3[C@@]3(c5noc(=O)[nH]5)C[C@@H]3C)[C@H]4C)c2=O)c(F)c1C)C1CC1 (single isomer, unassigned) [Compound 217]
0.017 nM				Cc1cc(-n2nc3c(c2-n2ccn(-c4ccc5c(c4F)CN=S5(C)=O)c2=O)[C@H](C)N(C(=O)c2cc4cc([C@H]5CCOC(C)(C)C5)ccc4n2[C@@]2(c4noc(=O)[nH]4)C[C@@H]2C)CC3)cc(C)c1F (single isomer, unassigned) [Compound 188]
0.0096 nM				Cc1cc(-n2nc3c(c2-n2ccn(-c4ccc5c(c4F)CN=S5(=O)C4CC4)c2=O)[C@H](C)N(C(=O)c2cc4cc([C@H]5CCOC(C)(C)C5)ccc4n2[C@@]2(c4noc(=O)[nH]4)C[C@@H]2C)CC3)cc(C)c1F (single isomer, unassigned) [Compound 191]
0.02 nM				CC1=Cc2cc(-n3ccn(-c4c5c(nn4-c4cc(C)c(F)c(C)c4)CCN(C(=O)c4cc6cc([C@H]7CCOC(C)(C)C7)ccc6n4[C@@]4(c6noc(=O)[nH]6)C[C@@H]4C)[C@H]5C)c3=O)ccc2S(C)(=O)=N1 (single isomer, unassigned) [Compound 207]
0.001 nM				Cc1cc(-n2nc3c(c2-n2ccn(-c4ccc(S(=N)(=O)C5CC5)cc4)c2=O)[C@H](C)N(C(=O)c2cc4cc(C5CCOCC5)ccc4n2[C@@]2(c4noc(=O)[nH]4)C[C@@H]2C)CC3)cc(C)c1F (single isomer, unassigned) [Compound 135]
0.035 nM				Cc1cc(-n2nc3c(c2-n2ccn(-c4ccc(S(C)(=O)=NC#N)cc4)c2=O)[C@H](C)N(C(=O)c2cc4cc(C5CCOCC5)ccc4n2[C@@]2(c4noc(=O)[nH]4)C[C@@H]2C)CC3)cc(C)c1F (single isomer, unassigned) [Compound 113]
